Laboratory results taken from ChEMBL document CHEMBL4028815, “Novel phosphonate analogs of sulforaphane: Synthesis, in vitro and in vivo anticancer activity” (Eur J Med Chem, 2017).
Active and inactive are the calls of the source. The calls are words filed in the database; no cut-off is given here.

Columns and labels:
[1] = system: 4T1; experiment: Anti-tumor activity against mouse 4T1 cells implanted in BALB/c mdb mouse assessed as lung metastasis at 100 umol/kg, ip administered five times weekly measured at 29 days post cell innoculum (reference value: 56 +/- 25); format: functional
[2] = system: Mus musculus; experiment: Toxicity in BALB/c mdb mouse implanted with mouse 4T1 cells assessed as hematocrit at 100 umol/kg, ip administered five times weekly measured at 29 day post cell innoculum (reference value: 39.9 +/- 3.7 %); format: organism-based; conditions: in vivo, 696 h
[3] = system: Mus musculus; experiment: Toxicity in BALB/c mdb mouse implanted with mouse 4T1 cells assessed as spleen weight at 100 umol/kg, ip administered five times weekly measured at 29 day post cell innoculum (reference value: 0.603 +/- 0.133 g); format: organism-based; conditions: in vivo, 696 h
[4] = system: 4T1; experiment: Anti-tumor activity against mouse 4T1 cells implanted in BALB/c mdb mouse assessed as tumor growth inhibition at 100 umol/kg, ip administered five times weekly measured on day 29 post cell innoculum relative to control; format: functional; conditions: 4T1, ip, 696 h, read-out: TGI
[5] = system: Mus musculus; experiment: Toxicity in BALB/c mdb mouse implanted with mouse 4T1 cells assessed as serum ALT level at 100 umol/kg, ip administered five times weekly measured at 29 day post cell innoculum (reference value: 23.8 +/- 2.2 U/L); format: organism-based; conditions: in vivo, 696 h
[6] = system: Mus musculus; experiment: Nephrotoxicity in BALB/c mdb mouse implanted with mouse 4T1 cells assessed as kidney weight at 100 umol/kg, ip administered five times weekly measured at 29 day post cell innoculum (reference value: 0.136 +/- 0.006 g); format: toxicity, organism-based; conditions: in vivo, 696 h
[7] = system: Mus musculus; experiment: Toxicity in BALB/c mdb mouse implanted with mouse 4T1 cells assessed as hemoglobin level at 100 umol/kg, ip administered five times weekly measured at 29 day post cell innoculum (reference value: 15.1 +/- 1.5 g/dl); format: organism-based; conditions: in vivo, 696 h
[8] = system: Mus musculus; experiment: Toxicity in BALB/c mdb mouse implanted with mouse 4T1 cells assessed as serum urea level at 100 umol/kg, ip administered five times weekly measured at 29 day post cell innoculum (reference value: 3.8 +/- […]); format: organism-based; conditions: in vivo, 696 h
[9] = system: LoVo; experiment: Cytotoxicity against human LoVo cells after 72 hrs by sulforhodamine B assay; format: functional, cell-based
[10] = system: Mus musculus; experiment: Toxicity in BALB/c mdb mouse implanted with mouse 4T1 cells assessed as serum AST level at 100 umol/kg, ip administered five times weekly measured at 29 day post cell innoculum (reference value: 136 +/- 10.3 U/L); format: organism-based; conditions: in vivo, 696 h
[11] = system: Mus musculus; experiment: Toxicity in BALB/c mdb mouse implanted with mouse 4T1 cells assessed as WBC level at 100 umol/kg, ip administered five times weekly measured at 29 day post cell innoculum (reference value: 212.3 +/- 82.8 10^3/uL); format: organism-based; conditions: in vivo, 696 h
[12] = system: LoVo; experiment: Potency index, ratio of sulforaphane IC50 to compound IC50 for human LoVo cells; format: functional
[13] = system: LoVo; experiment: Potency index, ratio of benzyl isothiocyanate IC50 to compound IC50 for human LoVo cells; format: functional
[14] = system: Mus musculus; experiment: Toxicity in BALB/c mdb mouse implanted with mouse 4T1 cells assessed as body weight loss at 100 umol/kg, ip administered five times weekly measured 3 times weekly during compound dosing; format: organism-based; conditions: in vivo
[15] = system: Mus musculus; experiment: Hepatotoxicity in BALB/c mdb mouse implanted with mouse 4T1 cells assessed as liver weight at 100 umol/kg, ip administered five times weekly measured at 29 day post cell innoculum (reference value: 1.2 +/- 0.13 g); format: toxicity, organism-based; conditions: in vivo, 696 h
[16] = system: Mus musculus; experiment: Toxicity in BALB/c mdb mouse implanted with mouse 4T1 cells assessed as serum PLT level at 100 umol/kg, ip administered five times weekly measured at 29 day post cell innoculum (reference value: 972 +/- 157 10^3/uL); format: organism-based; conditions: in vivo, 696 h
[17] = system: Mus musculus; experiment: Toxicity in BALB/c mdb mouse implanted with mouse 4T1 cells assessed as RBC level at 100 umol/kg, ip administered five times weekly measured at 29 day post cell innoculum (reference value: 8.6 +/- 0.9 10^6/uL); format: organism-based; conditions: in vivo, 696 h
[18] = system: Mus musculus; experiment: Toxicity in BALB/c mdb mouse implanted with mouse 4T1 cells assessed as lung weight at 100 umol/kg, ip administered five times weekly measured at 29 day post cell innoculum (reference value: 0.2 +/- 0.018 g); format: organism-based; conditions: in vivo, 696 h
[19] = Cytotoxicity against human LoVo/DX cells after 72 hrs by sulforhodamine B assay; format: functional, cell-based
[20] = system: Mus musculus; experiment: Toxicity in BALB/c mdb mouse implanted with mouse 4T1 cells assessed as serum creatinine level at 100 umol/kg, ip administered five times weekly measured at 29 day post cell innoculum (reference value: 9.3 +/- 1.2 umol/L); format: organism-based; conditions: in vivo, 696 h
[21] = Resistance index, ratio of IC50 for human LoVo/DX cells to IC50 for human LoVo cells; format: functional
[22] = system: 4T1; experiment: Anti-tumor activity against mouse 4T1 cells implanted in BALB/c mdb mouse assessed as tumor growth inhibition at 100 umol/kg, ip administered five times weekly measured on day 15 post cell innoculum relative to control; format: functional; conditions: 4T1, ip, 360 h, read-out: TGI
[23] = system: LoVo; experiment: Induction of apoptosis in human LoVo cells assessed as increase in caspase3/7 activity at 15 uM using Ac-DEVD-ACC as substrate pretreated for 24 hrs followed by substrate addition measured for 2 hrs by fluorescence assay relative to control; format: functional
[24] = system: LoVo; experiment: Induction of apoptosis in human LoVo cells assessed as late apoptotic cells at 15 uM after 24 hrs by APC-Annexin-V/propidium iodide staining based flow cytometric method relative to control; format: functional
[25] = system: LoVo; experiment: Induction of apoptosis in human LoVo cells assessed as necrotic cells at 15 uM after 24 hrs by APC-Annexin-V/propidium iodide staining based flow cytometric method (reference value: 10%); format: functional
[26] = system: LoVo; experiment: Induction of apoptosis in human LoVo cells assessed as increase in early apoptotic cells at 15 uM after 24 hrs by APC-Annexin-V/propidium iodide staining based flow cytometric method relative to control; format: functional
[27] = system: LoVo; experiment: Induction of apoptosis in human LoVo cells assessed as loss of mitochondrial membrane potential at 15 uM after 24 hrs by JC-1 staining based flow cytometric method relative to control; format: functional
[28] = Induction of apoptosis in human LoVo/DX cells assessed as increase in caspase3/7 activity at 15 uM using Ac-DEVD-ACC as substrate pretreated for 24 hrs followed by substrate addition measured for 2 hrs by fluorescence assay relative to control; format: functional
[29] = Induction of apoptosis in human LoVo/DX cells assessed as loss of mitochondrial membrane potential at 15 uM after 24 hrs by JC-1 staining based flow cytometric method relative to control; format: functional
[30] = system: LoVo/DX; experiment: Induction of apoptosis in human LoVo/DX cells assessed as late apoptotic cells at 15 uM after 24 hrs by APC-Annexin-V/propidium iodide staining based flow cytometric method relative to control; format: functional

| Structure (SMILES) | IC50 [9] [µM] | IC50 [19] [µM] | other results |
| --- | --- | --- | --- |
| CC(C)COP(=O)(CCCCCCN=C=S)OCC(C)C | 2.7 | 9.2 | Activity [1]: 58; Activity [2]: 53%; Activity [3]: 0.578 g; inhibition in vivo at 100 µmol/kg [4]: 14.3%; Activity [5]: 33.1 U/L; Activity [6]: 0.127 g; Activity [7]: 19.2 g/dL; Activity [8]: 5.2 mmol/L; Activity [10]: 153.6 U/L; Activity [11]: 311.2 ×10³ /uL; Ratio IC50 [12]: 10; Ratio IC50 [13]: 5; Activity [14]: <= 10%; Activity [15]: 1.25 g; Activity [16]: 831 ×10³ /uL; Activity [17]: 10.8 ×10⁶ /uL; Activity [18]: 0.199 g; Activity [20]: 8.2 µmol/L; Ratio IC50 [21]: 3.4; inhibition in vivo at 100 µmol/kg [22]: 31% |
| COP(=O)(CCCCN=C=S)OC | 5.4 | 6.5 |  |
| CCOP(=O)(CCCCN=C=S)OCC | 4.6 | 10.2 |  |
| O=P(CCCCCN=C=S)(OCC(F)(F)F)OCC(F)(F)F | 5.4 | 10.5 |  |
| C#CCOP(=O)(CCCCN=C=S)OCC#C | 3.2 | 11.3 |  |
| C=CCOP(=O)(CCCCN=C=S)OCC=C | 5.2 | 3.7 |  |
| O=P(CCCCN=C=S)(OCC1CCCO1)OCC1CCCO1 (configuration not stated) | 5 | 7.6 |  |
| CC(C)(C)COP(=O)(CCCCCN=C=S)OCC(C)(C)C | 8.9 | 10.8 |  |
| CCC(C)OP(=O)(CCCCN=C=S)OC(C)CC (configuration not stated) | 4.3 | 3.6 |  |
| CCOP(=O)(CCCN=C=S)OCC | 2.9 | 3 | Ratio IC50 [12]: 10; Ratio IC50 [13]: 5 |
| CC(C)(C)COP(=O)(CCCN=C=S)OCC(C)(C)C | 10.2 | 14 |  |
| CC(C)COP(=O)(CCCN=C=S)OCC(C)C | 2.4 | 5.6 | Ratio IC50 [12]: 10; Ratio IC50 [13]: 5 |
| O=P(CCN=C=S)(Oc1ccccc1)Oc1ccccc1 | 10.5 | 11.4 |  |
| O=P(CCN=C=S)(OCC(F)(F)F)OCC(F)(F)F | 5.5 | 8.2 |  |
| O=P(CCCCN=C=S)(Oc1ccccc1)Oc1ccccc1 | 2.3 | 3.1 | Ratio IC50 [12]: 10; Ratio IC50 [13]: 5 |
| O=P(CCCCCN=C=S)(Oc1ccccc1)Oc1ccccc1 | 2.2 | 4.6 | Ratio IC50 [12]: 10; Ratio IC50 [13]: 5 |
| COP(=O)(CCN=C=S)OC | 12.3 | 12.4 |  |
| CCOP(=O)(CCCCCN=C=S)OCC | 2.8 | 3.1 | Ratio IC50 [12]: 10; Ratio IC50 [13]: 5 |
| C=CCN=C=S [ALLYL ISOTHIOCYANATE] | 21.2 | 29.3 |  |
| CC(C)[C@@H]1CC[C@@H](C)C[C@H]1OP(=O)(CCCCN=C=S)O[C@@H]1C[C@H](C)CC[C@H]1C(C)C | 5.1 | 5.8 |  |
| C[S+]([O-])CCCCN=C=S (configuration not stated) [SULFORAPHANE] | 22.9 | 18.1 | fold change (FC) [23]: 1.41; Activity [24]: Active; Activity [25]: Active; Activity [26]: inactive; Activity [27]: 35%; fold change (FC) [28]: 2.52; Activity [29]: 35%; Activity [30]: Active |
| CC(C)COP(=O)(CCCCN=C=S)OCC(C)C | 3.3 | 10.4 |  |
